The target of series [1] is T1, FR-α positive KB cells (Homo sapiens, UniProt P15328).
T1 construct: KB cells, a human nasopharyngeal cancer cell line known to over-express FR-α; host or cells: KB cells
Nature of the series: Binding affinity of ^99mTc conjugates for KB cells (gamma counting). How it is done: For evaluation of its affinity for FR-α, increasing concentrations of ^99mTc-DMTHF-chelate were incubated with KB cells, a human nasopharyngeal cancer cell line known to over-express FR-α. The level of bound radioactivity was analyzed using a gamma counter.
KB or CHO-β cells (100,000 cells/well in 500 μl) were plated into 24 well Falcon plates and allowed to form adherent monolayers (ca. 70% confluent) overnight. […] Cells were washed with PBS (3×1.0 mL), after which 0.25 M aqueous NaOH (0.5 ml) was added to dissolve the cells. After 10 minutes incubation, 450 μl from each well were transferred polypropylene tubes and counted for radioactivity in a γ counter (Packard Instrument Company). The binding affinity, Kd, was calculated using GraphPad Prism 4 by plotting cell bound radioactivity versus the concentration of radiotracer added.

Series [2] addresses T1, FR-α positive KB cells. Nature of the series: Flow cytometry analysis of dye conjugate binding to KB cells. The series is classed as cell-based. The conditions noted are these: 100 nM, 1 h at 37° C. How it is done:
(§1) KB cells were allowed to form monolayers in a T75 falcon flask for 48 hours in folate-deficient RPMI 1640 culture medium (FDRPMI). The confluent cells were trypsinized and 1×10^6 cells were transferred into each Eppendorf tube and centrifuged. Spent medium was removed and the pelleted cells were resuspended in fresh medium containing either DMTHF-DyLight™ 680 conjugate (100 nM) or folate-DyLight™ 680 conjugate (100 nM), either in the presence or absence of 100-fold molar excess of free folic acid. After incubation for 1 h at 37° C., the cells were washed 3 times with PBS (0.5 ml) and re-suspended in fresh PBS (0.4 ml). Bound fluorescence was analyzed using a flow cytometer (Cytomics F500; Beckman Coulter).

The subject of a further series is xenograft KB tumor. Description: Optical imaging of athymic nude mice bearing KB tumor. The series is classed as in vivo, mouse. Conditions: athymic nude mice with KB tumor, 4 h after administration. How it is done:
(§2) Radioimages of murine models of human diseases were acquired with a Kodak Imaging Station coupled to a CCD camera operated with Kodak Molecular Imaging Software v 4.0 (Carestream Molecular Imaging). Abdomens were generally shielded with a lead plate in order to mask radioactivity emitted from the kidneys and bladder. The parameters used for radioimaging were: acquisition time=2 min, f-stop=4, focal plane=7, FOV=200, binning=4. For white light imaging, the parameters were: acquisition time=0.05 s, f-stop=11, focal plane=7, FOV=200, with no binning. For fluorescent imaging, abdomens were shielded with black construction paper to block fluorescence emitted from the kidneys and bladder. The parameters used were: acquisition time=30 s, excitation filter of λ=625 nm, emission filter of λ=700 nm, f-stop=4, focal plane=7, FOV=200, and binning=4.
Animals bearing tumors and/or inflammatory diseases were prepared as described above and injected intraperitoneally with DMTHF-DyLight™ 680 or folate-DyLight™ 680 conjugate (4 nmol in 100 μl of PBS). […] To evaluate accumulation of test compounds in specific organs/tissues, animals were dissected and organs/tissues of interest were excised and selected regions of interest were analyzed in the Kodak Imaging Station.

Series [3] has as its system M109 tumor and DSS induced ulcerative colitis. Nature of the series: Optical imaging of Balb/C mice bearing M109 tumor with DSS induced ulcerative colitis. The class given is in vivo, mouse. Conditions: 4 h after administration. How it is done: as §2
Six week old female Balb/c mice were purchased from Harlan laboratories and maintained on a folate deficient diet (Harlan-Teklad, Wis.). After one week of acclimation, the mice were inoculated subcutaneously on the shoulder with 0.1 mL of M109 tumor cell suspension (1×10^6 cells). Subcutaneous tumor growth was monitored daily and on day 10 post tumor inoculation, 4% dextran sulfate sodium was added to their drinking water for 6 days to induce experimental ulcerative colitis. […]

In series [4] the target is T2, FR-β positive rat peritoneal macrophages (Rattus norvegicus, UniProt D4A4S5).
T2 construct: from tissue; host or cells: CD11b+ peritoneal macrophages from Lewis rats
Nature of the series: Flow cytometry analysis of dye conjugate binding to rat peritoneal macrophages. The class given is cell-based. Conditions: 100 nM, 1 h at 37° C. How it is done: as §1
For similar analysis of rat peritoneal macrophages, experimental adjuvant-induced arthritis was induced in Lewis rats according to a previously reported procedure. After 25 days of arthritis induction, the rats were sacrificed by CO2 asphyxiation and peritoneal macrophages were harvested by injecting 60 mL PBS into the peritoneal cavity, and after brief massage of the abdomen, removing the cells using the injection syringe. Peritoneal cells were transferred to Eppendorf tubes, washed and stained as described above, except CD11b+ macrophages that were identified by co-staining with anti-CD 11b-PE (phycoerythrin-labeled antibody to CD11b).

Series [5] concerns the target T3, FR-β positive human peripheral blood monocytes (Homo sapiens, UniProt P14207).
T3 construct: Human peripheral blood monocytes were isolated from whole human blood by a known procedures; from tissue; host or cells: human peripheral blood mononuclear cells from healthy volunteers (CD11b+ monocytes)
Nature of the series: Flow cytometry analysis of human peripheral blood monocytes. The conditions noted are these: 100 nM, 1 h at 37° C. The series is classed as cell-based. As for the experimental part:
Human peripheral blood monocytes were isolated from whole human blood by a known procedures. Briefly, whole human blood in anticoagulant was collected from healthy volunteers following informed consent and the mononuclear cells were separated by Ficoll-Paque centrifugation. Cells were re-suspended in Eppendorf tubes in FDRPMI medium containing either DMTHF-Oregon Green™ 488 (100 nM) or folate-Oregon Green™ 488 (100 nM) plus CD 11b Tricolor to label human monocytes. For competition studies 100-fold molar excess of free folic acid was included in the suspension. After incubation for 1 h at 37° C., the cells were washed 3 times with PBS (0.5 ml) and re-suspended in fresh PBS (0.4 ml). Bound fluorescence was analyzed by flow cytometry as described above.

The test system of another series is KB cells. Nature of the series: In vitro cytotoxicity assay ([^3H]-thymidine incorporation) in KB cells. The series is classed as cell-based, human. The conditions noted are these: for IC50: 2 h pulse, additional 66 h incubation. As for the experimental part:
The in vitro toxicity of DMTHF-EC-119-TubH, compound 6a, (See FIG. 15) was analyzed in KB cells which were pulsed for 2 h with increasing concentrations of DMTHF-EC-119-TubH in the presence or absence of 100 μM folic acid. After washing to remove unbound conjugate, cells were incubated for an additional 66 h in fresh medium before addition of tritiated thymidine.
(§3) KB, RAW or IGROV cells were seeded in 24-well (100,000 cells/well) Falcon plates and allowed to form monolayers overnight. Spent medium was then replaced with fresh medium (0.5 mL) containing increasing concentrations of drug conjugate in the presence or absence of excess folic acid, and cells were incubated for an additional 2 h at 37° C. Cells were washed 3× with fresh medium (0.5 mL) and incubated in fresh medium (0.5 mL) for another 66 h at 37° C. Spent medium in each well was replaced with fresh medium (0.5 mL) containing [^3H]-thymidine ([…]) and the cells were incubated for additional 4 h at 37° C. to allow [^3H]-thymidine incorporation. Cells were then rinsed with medium (3×0.5 mL) and treated with 5% trichloroacetic acid (0.5 mL) for 10 min at room temperature. After replacing trichloroacetic acid with 0.25 N NaOH (0.5 mL), cells were transferred to individual scintillation vials containing Ecolume scintillation cocktail (3.0 mL) and counted in a liquid scintillation counter. IC50 values were calculated by plotting %[^3H]-thymidine incorporation versus log concentration of DMTHF-EC-119-drug conjugate in GraphPad Prism 4.

The next series relates to IGROV cells. Nature of the series: In vitro cytotoxicity assay ([^3H]-thymidine incorporation) in IGROV cells. The series is classed as cell-based, human. As for the experimental part: as §3
The subject of a further series is RAW 264.7 cells. Description: In vitro cytotoxicity assay ([^3H]-thymidine incorporation) in RAW 264.7 cells. The series is classed as cell-based. The conditions noted are these: murine macrophage cell line. As for the experimental part:
as §3

T1 sequence (P15328 25-234): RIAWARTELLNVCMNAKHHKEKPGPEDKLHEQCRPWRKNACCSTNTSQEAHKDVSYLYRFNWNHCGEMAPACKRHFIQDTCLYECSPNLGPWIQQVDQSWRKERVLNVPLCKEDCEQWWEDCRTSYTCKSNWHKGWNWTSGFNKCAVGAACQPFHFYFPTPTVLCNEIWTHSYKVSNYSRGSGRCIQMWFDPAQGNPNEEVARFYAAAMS
T3 sequence (P14207 17-230): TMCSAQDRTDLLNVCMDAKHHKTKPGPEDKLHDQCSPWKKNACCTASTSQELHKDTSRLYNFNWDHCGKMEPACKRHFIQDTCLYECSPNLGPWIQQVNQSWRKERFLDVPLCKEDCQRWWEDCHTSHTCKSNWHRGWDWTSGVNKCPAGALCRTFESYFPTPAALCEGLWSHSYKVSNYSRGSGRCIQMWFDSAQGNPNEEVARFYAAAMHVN
T2 sequence (D4A4S5 21-252): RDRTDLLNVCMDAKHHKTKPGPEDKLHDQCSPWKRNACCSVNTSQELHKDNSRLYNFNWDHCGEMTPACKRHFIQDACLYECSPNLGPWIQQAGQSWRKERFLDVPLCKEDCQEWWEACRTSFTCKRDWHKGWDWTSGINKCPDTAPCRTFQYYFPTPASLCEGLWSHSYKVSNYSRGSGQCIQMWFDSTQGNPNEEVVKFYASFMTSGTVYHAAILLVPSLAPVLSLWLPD

On to `Nc1nc2ncc(CNc3ccc(C(=O)N[C@H](CCC(=O)NC[C@H](N)C(=O)N[C@@H](CC(=O)O)C(=O)N[C@@H](CS)C(=O)O)C(=O)O)cc3)nc2c(=O)[nH]1` [EC20, pteroic acid-Glu-DAP-Asp-Cys], for which, at FR-α positive KB cells [1] (100-fold molar excess of free folic acid), the “competition of KB cell binding by free folic acid” value is on record as “competed by excess free folic acid”. For the same molecule, the Kd at FR-α positive KB cells [1] (KB cells, 1 hour at 37° C, cell bound radioactivity, read-out: apparent Kd) turned out to be 0.023 µM.
Take “N^5,N^10-Dimethyl Tetrahydrofolate-DyLight™ 680 [DMTHF-DyLight™ 680]”: the “binding to FR-α+ human KB cells” value on FR-α positive KB cells [2] is on record as “binds avidly”. Further, the “fluorescent uptake, optical imaging” value with xenograft KB tumor was “tumor selective uptake”. The “fluorescent uptake, ROI analysis of organs/tissues” value in [3] is recorded as “accumulated mainly in tumors”. In series [4], the “binding to CD11b+ rat peritoneal macrophages (FR-β)” value is “no measurable affinity”.
In the case of “N^5,N^10-Dimethyl tetrahydrofolate-Oregon Green™ 488 [DMTHF-Oregon Green]”, in series [5], the “shift in the CD11b+ subpopulation of human peripheral blood leucocytes (FR-β)” value was “did not”.
As for `CCCC(=O)OCN(C(=O)[C@@H](NC(=O)[C@H]1CCCCN1C)C(C)CC)[C@H](C[C@@H](OC(C)=O)c1nc(C(=O)N[C@@H](Cc2ccc(O)cc2)C[C@H](C)C(=O)NNC(=O)OCCSSC[C@H](NC(=O)[C@H](CC(=O)O)NC(=O)[C@H](CC(=O)O)NC(=O)[C@H](CCCNC(=N)N)NC(=O)[C@H](CC(=O)O)NC(=O)CC[C@H](NC(=O)c2ccc(N(C)CC3CNc4nc(N)[nH]c(=O)c4N3C)cc2)C(=O)O)C(=O)O)cs1)C(C)C` (stereo partly shown) [DMTHF-EC-119-TubH, DMTHF-EC-119-tubulysin B hydrazide], the “effect of excess folic acid on cytotoxicity” value in the series with KB cells (100 μM folic acid) is on record as “inhibited by excess folic acid”. The IC50 in the series with KB cells was 0.041 µM; with IGROV cells it was approximately 120 µM.
On to `CCC1(O)CC2CN(CCc3c([nH]c4ccccc34)[C@](C(=O)OC)(c3cc4c(cc3OC)N(C)[C@@H]3[C@](O)(C(=O)NNC(=O)OCCSSC[C@H](NC(=O)[C@H](CC(=O)O)NC(=O)[C@H](CC(=O)O)NC(=O)[C@H](CCCNC(=N)N)NC(=O)[C@H](CC(=O)O)NC(=O)CC[C@H](NC(=O)c5ccc(N(C)CC6CNc7nc(N)[nH]c(=O)c7N6C)cc5)C(=O)O)C(=O)O)[C@@H](O)[C@@]5(CC)C=CCN6CC[C@@]43[C@H]65)C2)C1` (stereo partly shown) [DMTHF-EC-119-DAVBH, DMTHF-EC-119-desacetylvinblastine hydrazide], for which, in the series with RAW 264.7 cells, the “cytotoxicity in RAW 264.7 cells” value is “did not show any cytotoxicity”. Further, the IC50 in the series on KB cells is 0.042 µM; with IGROV cells, approximately 1 µM.
For the molecule `CN(CC1CNc2nc(N)[nH]c(=O)c2N1C)c1ccc(C(=O)N[C@@H](CCC(=O)O)C(=O)O)cc1` (stereo partly shown) [DMTHF, N^5,N^10-dimethyl-tetrahydrofolic acid], at FR-α positive KB cells [2], the “binding to FR-α+ human KB cells” value is recorded as “binds FR-α”. In addition, in series [5], the “shift in the CD11b+ subpopulation of human peripheral blood leucocytes (FR-β)” value is on record as “lack of affinity”. The “binding to CD11b+ rat peritoneal macrophages (FR-β)” value in series [4] is reported as “little affinity for FR-β”.

For the origin of these results see patent publication US9629918B2, “Folate receptor alpha binding ligands” (PURDUE RESEARCH FOUNDATION, priority 2012, dated 2017).
